Tests used:
[1] = EFdA rat PK studies (SC and IM); type: in vivo, Wistar Han rats
Excerpt: A total of seven naïve male Wistar Han rats, 200-250 g, were received from the supplier equipped with a surgically-implanted jugular vein catheter (JVC) for blood sample collection. Following an acclimation period, the animals were assigned to the study based on acceptable health as determined by a staff veterinarian and catheter patency. Animals were placed into two groups of 3 rats per group. Fasting of the animals before or after dosing was not required.
On Day 1 each animal in Group 1 received a single subcutaneous injection of prepared test article at a target dose level of 20 mg/kg and at a dose volume of 0.33 mL/kg. Each animal in Group 2 received a single intramuscular injection of prepared test article into a thigh muscle at a target dose level of 20 mg/kg and at a dose volume of 0.33 mL/kg. The injection sites were shaved prior to dosing and identified with an indelible marker for daily monitoring during the study. The animals were manually restrained for dosing and were not sedated. The dose suspension was mixed well by inversion before each dose to ensure homogeneity. […] In addition, all animals are monitored twice daily by the veterinary staff for clinical abnormalities. […]
The PK plasma samples were analyzed by the Testing Facility to determine the concentration of EFdA using an LC-MS/MS Research Grade Assay (RGA-1) with sensitivity to 0.1 ng/mL. […]

[2] = tested on: HIV pseudotyped virus, M184V; type: cell-based; conditions: U373 cells (CD4, CXCR4 or CCR5), luciferase signal after 3 days
[3] = tested on: HIV pseudotyped virus (NL4-3 provirus, luciferase reporter), WT; assay: PSV (pseudotyped virus) assay, WT; conditions: Human immunodeficiency virus 1, NL43, 72 h, read-out: WT IC50

Detectable duration of exposure of EFdA ([1]; IM and SC administration of 20 mg/kg EFdA)	Structure (SMILES)	Clinical observations and injection site reactions ([1]; 20 mg/kg single SC or IM injection, study period to Day 29)	IC50 [2]	IC50 [3]
less than 8 days	C#C[C@]1(CO)O[C@@H](n2cnc3c(N)nc(F)nc32)C[C@@H]1O [EFdA, (2R,3S,5R)-5-(6-amino-2-fluoro-9H-purin-9-yl)-2-ethynyl-2-(hydroxymethyl)tetrahydrofuran-3-ol]	No abnormal clinical observations and no injection site reactions	–	–
–	C#C[C@]1(COC(=O)C(CCC)CCC)O[C@@H](n2cnc3c(N)nc(F)nc32)C[C@@H]1OC(=O)CCC [Example 30, ((2R,3S,5R)-5-(6-amino-2-fluoro-9H-purin-9-yl)-3-(butyryloxy)-2-ethynyltetrahydrofuran-2-yl)methyl 2-propylpentanoate]	–	1.5 µM	0.334 µM
–	C#C[C@@]12COC(=O)CCCCCCCCCCCCC(=O)O[C@H]1C[C@H](n1cnc3c(N)nc(F)nc31)O2 [Example 33, (2R,3aS,20aR)-2-(6-amino-2-fluoro-9H-purin-9-yl)-20a-ethynylhexadecahydro-2H-furo[3,2-b][1,5]dioxacyclononadecine-5,18-dione]	–	0.086 µM	0.017 µM
–	C#C[C@]1(COC(=O)CNC(=O)CCCCCC)O[C@@H](n2cnc3c(N)nc(F)nc32)C[C@@H]1O [Example 34, ((2R,3S,5R)-5-(6-amino-2-fluoro-9H-purin-9-yl)-2-ethynyl-3-hydroxytetrahydrofuran-2-yl)methyl Heptanoylglycinate]	–	0.025 µM	0.004 µM
–	C#C[C@]1(COC(=O)CNC(=O)CCCCCCCCCCCCC)O[C@@H](n2cnc3c(N)nc(F)nc32)C[C@@H]1O [Example 35, ((2R,3S,5R)-5-(6-amino-2-fluoro-9H-purin-9-yl)-2-ethynyl-3-hydroxytetrahydrofuran-2-yl)methyl Tetradecanoylglycinate]	–	0.009 µM	0.001 µM
–	C#C[C@]1(COC(=O)[C@H](C)NC(=O)CCCCCC)O[C@@H](n2cnc3c(N)nc(F)nc32)C[C@@H]1O [Example 36, ((2R,3S,5R)-5-(6-amino-2-fluoro-9H-purin-9-yl)-2-ethynyl-3-hydroxytetrahydrofuran-2-yl)methyl heptanoyl-L-alaninate]	–	0.021 µM	0.004 µM

— patent publication US12240853B2, “Compounds useful in HIV therapy” (GlaxoSmithKline Intellectual Property (No.2) Limited, priority 2019, dated 2025)
